Data on 1 compound can be found in ChEMBL document CHEMBL4002647, “BMS-933043, a Selective α7 nAChR Partial Agonist for the Treatment of Cognitive Deficits Associated with Schizophrenia” (ACS Med Chem Lett, 2017).

The nature of data set [1]: AUC in mouse at 10 mg/kg, po. To be noted: in vivo. Format: ADME, organism-based.
The nature of data set [2]: AUC in rat at 10 mg/kg, po. The data set is classed as ADME, organism-based. The following applies: in vivo.
The nature of data set [3]: Cmax in rat at 10 mg/kg, po. The data set is classed as ADME, organism-based. The arrangement: dose 10 mg/kg, route oral. The following applies: in vivo.
In the next data set the test system is Mus musculus. The data set is described as follows: Cognitive enhancing effect in C57Bl/6 mouse assessed as time spent on exploring novel objects administered subcutaneously 30 mins prior to test and measured after 24 hrs by novel object recognition test. To be noted: C57Bl/6, sc, read-out: MED. Format: functional.
A short description of data set [4]: Total plasma clearance in mouse at 1 mg/kg, iv administered as 5 mins infusion. The data set is classed as ADME, organism-based.
In another data set the target is Cytochrome P450 2C8 (Homo sapiens, UniProt P10632). Put plainly: Inhibition of recombinant human CYP2C8 using fluorogenic substrate preincubated for 30 mins and measured after 20 to 60 mins in presence of NADPH regenerating system by fluorescence assay. The data set is classed as ADME.
Data set [5] has as its target Nicotinic acetylcholine receptor alpha-1/beta-1/delta/epsilon (Rattus norvegicus, UniProt P09660+P25108+P25109+P25110). The data set is described as follows: Agonist activity at rat alpha1beta1delta1epsilon nAChR expressed in HEK293 cells assessed as increase in Ca2+ flux by Fluo-4 AM dye based FLIPR assay. The data set is classed as cell-based. (In general: A change in cytosolic calcium serves as a functional read-out for many receptors and channels.)

Data set [6] in a line: Half life in cynomolgus monkey at 1 mg/kg, iv administered as 5 mins infusion. The data set is classed as ADME, organism-based, Macaca fascicularis. To be noted: in vivo.
A short description of data set [7]: AUC in rat at 1 mg/kg, iv administered as 5 mins infusion. Format: ADME, organism-based. The following applies: in vivo.
Data set [8] can be described thus: AUC in dog at 1 mg/kg, iv administered as 5 mins infusion. The data set is classed as ADME, organism-based, Canis lupus familiaris. The following applies: in vivo.
Data set [9] can be described thus: Total plasma clearance in cynomolgus monkey at 1 mg/kg, iv administered as 5 mins infusion. Format: ADME, organism-based, Macaca fascicularis.
Data set [10] is described as follows: Volume of distribution at steady state in dog at 1 mg/kg, iv administered as 5 mins infusion. The following applies: in vivo, read-out: Vdss. Format: ADME, organism-based, Canis lupus familiaris.
Data set [11] is described as follows: AUC in cynomolgus monkey at 1 mg/kg, iv administered as 5 mins infusion. The following applies: in vivo. Format: ADME, organism-based, Macaca fascicularis.
A short description of data set [12]: Fraction unbound in monkey plasma at 10 uM after 4 hrs by equilibrium dialysis method. The data set is classed as ADME, cell-free, Macaca mulatta. To be noted: rhesus monkey. (In general: In equilibrium dialysis free small molecules cross a membrane that holds back macromolecules.)

Chain of Nicotinic acetylcholine receptor alpha-1/beta-1/delta/epsilon (P25109 whole entry): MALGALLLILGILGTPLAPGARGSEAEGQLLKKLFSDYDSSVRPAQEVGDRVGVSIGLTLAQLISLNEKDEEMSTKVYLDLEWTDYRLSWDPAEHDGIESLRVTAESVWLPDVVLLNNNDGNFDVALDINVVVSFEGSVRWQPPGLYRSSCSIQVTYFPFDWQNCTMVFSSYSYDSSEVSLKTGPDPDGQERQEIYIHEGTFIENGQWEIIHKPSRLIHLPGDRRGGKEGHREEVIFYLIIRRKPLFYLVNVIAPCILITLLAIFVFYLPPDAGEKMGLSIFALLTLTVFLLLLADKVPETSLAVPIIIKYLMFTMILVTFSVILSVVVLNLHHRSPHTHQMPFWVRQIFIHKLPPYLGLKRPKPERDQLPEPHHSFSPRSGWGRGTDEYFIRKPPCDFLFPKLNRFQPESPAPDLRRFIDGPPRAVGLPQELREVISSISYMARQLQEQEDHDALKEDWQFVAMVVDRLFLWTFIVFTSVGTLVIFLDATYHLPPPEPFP
Chain of Nicotinic acetylcholine receptor alpha-1/beta-1/delta/epsilon (P25108 whole entry): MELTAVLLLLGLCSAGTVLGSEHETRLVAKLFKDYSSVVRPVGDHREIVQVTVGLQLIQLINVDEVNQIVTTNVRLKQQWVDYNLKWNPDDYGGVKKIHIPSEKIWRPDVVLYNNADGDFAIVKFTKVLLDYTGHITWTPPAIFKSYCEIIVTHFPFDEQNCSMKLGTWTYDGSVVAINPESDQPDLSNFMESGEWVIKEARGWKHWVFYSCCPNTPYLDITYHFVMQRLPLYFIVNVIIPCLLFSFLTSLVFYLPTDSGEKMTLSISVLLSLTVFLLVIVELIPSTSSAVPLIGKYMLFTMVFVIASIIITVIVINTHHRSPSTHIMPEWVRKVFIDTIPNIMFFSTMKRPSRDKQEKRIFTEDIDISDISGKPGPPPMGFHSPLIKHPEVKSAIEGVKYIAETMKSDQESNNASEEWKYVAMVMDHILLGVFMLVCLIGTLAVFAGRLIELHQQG
Chain of Nicotinic acetylcholine receptor alpha-1/beta-1/delta/epsilon (P25110 whole entry): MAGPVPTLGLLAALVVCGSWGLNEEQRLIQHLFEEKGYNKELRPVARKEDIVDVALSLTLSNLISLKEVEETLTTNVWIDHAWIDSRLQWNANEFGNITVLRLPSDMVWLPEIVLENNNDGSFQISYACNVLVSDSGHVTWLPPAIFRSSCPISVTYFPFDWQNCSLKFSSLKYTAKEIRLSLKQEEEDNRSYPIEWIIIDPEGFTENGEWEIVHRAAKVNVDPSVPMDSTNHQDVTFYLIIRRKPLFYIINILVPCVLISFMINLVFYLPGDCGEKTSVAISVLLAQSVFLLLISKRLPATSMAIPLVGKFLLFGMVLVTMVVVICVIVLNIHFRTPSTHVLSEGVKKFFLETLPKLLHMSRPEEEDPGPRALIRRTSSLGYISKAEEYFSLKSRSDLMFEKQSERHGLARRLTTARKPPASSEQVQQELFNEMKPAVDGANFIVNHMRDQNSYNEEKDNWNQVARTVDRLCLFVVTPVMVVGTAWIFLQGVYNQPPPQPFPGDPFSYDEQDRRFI
Chain of Nicotinic acetylcholine receptor alpha-1/beta-1/delta/epsilon (P09660 whole entry): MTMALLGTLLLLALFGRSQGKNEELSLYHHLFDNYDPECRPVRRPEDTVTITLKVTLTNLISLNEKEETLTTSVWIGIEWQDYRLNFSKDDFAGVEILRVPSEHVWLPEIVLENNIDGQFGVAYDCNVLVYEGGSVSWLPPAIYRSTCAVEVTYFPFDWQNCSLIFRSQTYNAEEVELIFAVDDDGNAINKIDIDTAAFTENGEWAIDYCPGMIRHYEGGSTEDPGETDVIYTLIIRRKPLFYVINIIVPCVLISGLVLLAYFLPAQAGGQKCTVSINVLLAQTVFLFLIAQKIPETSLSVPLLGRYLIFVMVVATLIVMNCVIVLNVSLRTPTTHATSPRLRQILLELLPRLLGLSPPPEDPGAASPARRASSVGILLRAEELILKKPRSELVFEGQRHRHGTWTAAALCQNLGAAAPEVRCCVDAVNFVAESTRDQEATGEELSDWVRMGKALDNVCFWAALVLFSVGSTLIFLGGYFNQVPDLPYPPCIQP
Chain of Cytochrome P450 2C8 (P10632 whole entry): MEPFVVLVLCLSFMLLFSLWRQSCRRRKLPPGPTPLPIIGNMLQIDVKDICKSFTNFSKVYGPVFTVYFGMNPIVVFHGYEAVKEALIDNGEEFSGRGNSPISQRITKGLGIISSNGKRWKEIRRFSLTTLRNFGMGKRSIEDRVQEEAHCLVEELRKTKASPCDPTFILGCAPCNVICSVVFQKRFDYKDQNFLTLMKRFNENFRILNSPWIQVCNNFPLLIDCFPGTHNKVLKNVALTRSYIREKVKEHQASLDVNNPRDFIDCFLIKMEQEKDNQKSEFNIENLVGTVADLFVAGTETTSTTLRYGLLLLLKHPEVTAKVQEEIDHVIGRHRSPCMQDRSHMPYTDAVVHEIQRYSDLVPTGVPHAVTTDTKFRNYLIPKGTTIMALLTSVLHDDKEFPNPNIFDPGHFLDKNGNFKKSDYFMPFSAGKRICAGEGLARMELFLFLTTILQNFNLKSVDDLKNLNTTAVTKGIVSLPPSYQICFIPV

Usually AUC stands for concentration integrated over time. The term Cmax denotes the peak of the concentration-time curve. Usually clearance stands for the rate of elimination divided by the concentration. By IC50 is commonly meant the midpoint of a concentration-inhibition curve. Usually EC50 stands for the concentration at which the effect is half-maximal. As a reminder, the half-life is the time needed for the level to fall by half in the phase considered. The fraction unbound is free concentration divided by total concentration. On to `c1cn(-c2cc(NC3=NC[C@@]4(CN5CCC4CC5)O3)ncn2)cn1`, for which the AUC in data set [1] was determined as 3.2 µM·h; in data set [2] it was 7.2 µM·h. Also, the concentration in data set [3] peaked (Cmax) at 1600 nM. For the same compound, in the data set on Mus musculus, the minimal effective dose was 0.1 mg/kg. Further, the clearance in [4] turned out to be 96 mL/min/kg; in data set [9], 17 mL/min/kg. Moreover, the IC50 at Cytochrome P450 2C8 is above 30 µM. For the same compound, the EC50 in [5] is above 100 µM. In [6], the half-life was 4.4 h. Moreover, the exposure (AUC) at 5 min in [7] was determined as 0.75 µM·h; in data set [8], 3.4 µM·h; in [11], 3 µM·h. The Vd in data set [10] was 5.5 L/kg. This compound displayed a fraction unbound at 4 h, 10 µM in data set [12] of 0.87.
